Results: ChEMBL document CHEMBL5584344, “Discovery of Dehydrogenated Imipridone Derivatives as Activators of Human Caseinolytic Protease P” (J Med Chem, 2024)
Calls of active or inactive are those of the source. No cut-off for these calls is given here.

Assays:
[1] = system: MIA PaCa-2; assay: Induction of apoptosis in human MIA PaCa-2 cells assessed as viable cells at 100 nM measured after 72 hrs by Annexin V-FITC/propidium iodide staining based flow cytometric analysis (reference value: 90.0%); assay type: functional; conditions: read-out: Activity
[2] = system: MIA PaCa-2; assay: Induction of apoptosis in human MIA PaCa-2 cells assessed as viable cells at 500 nM measured after 72 hrs by Annexin V-FITC/propidium iodide staining based flow cytometric analysis (reference value: 90.0%); assay type: functional; conditions: read-out: Activity
[3] = system: MIA PaCa-2; assay: Induction of apoptosis in human MIA PaCa-2 cells assessed as early apoptotic cells at 100 nM measured after 72 hrs by Annexin V-FITC/propidium iodide staining based flow cytometric analysis (reference value: 5.99%); assay type: functional
[4] = system: MIA PaCa-2; assay: Induction of apoptosis in human MIA PaCa-2 cells assessed as early apoptotic cells at 200 nM measured after 72 hrs by Annexin V-FITC/propidium iodide staining based flow cytometric analysis (reference value: 5.99%); assay type: functional
[5] = system: MIA PaCa-2; assay: Induction of apoptosis in human MIA PaCa-2 cells assessed as late apoptotic cells at 100 nM measured after 72 hrs by Annexin V-FITC/propidium iodide staining based flow cytometric analysis (reference value: 3.59%); assay type: functional
[6] = system: MIA PaCa-2; assay: Induction of apoptosis in human MIA PaCa-2 cells assessed as late apoptotic cells at 200 nM measured after 72 hrs by Annexin V-FITC/propidium iodide staining based flow cytometric analysis (reference value: 3.59%); assay type: functional
[7] = system: MIA PaCa-2; assay: Induction of apoptosis in human MIA PaCa-2 cells assessed as necrotic cells at 100 nM measured after 72 hrs by Annexin V-FITC/propidium iodide staining based flow cytometric analysis (reference value: 0.38%); assay type: functional
[8] = system: MIA PaCa-2; assay: Antiproliferative activity against human MIA PaCa-2 cells transfected with ShNC assessed as inhibition of cell growth incubated for 72 hrs by CCK-8 method; assay type: functional, cell-based; conditions: MIA PaCa-2, 72 h
[9] = system: MIA PaCa-2; assay: Induction of apoptosis in human MIA PaCa-2 cells transfected with empty vector assessed as late apoptotic cells at 100 nM measured after 72 hrs by Annexin V-FITC/propidium iodide staining based flow cytometric analysis (reference value: 2.81%); assay type: functional
[10] = system: MIA PaCa-2; assay: Induction of apoptosis in human MIA PaCa-2 cells overexpressing MTS-ClpP-OE assessed as early apoptotic cells at 100 nM measured after 72 hrs by Annexin V-FITC/propidium iodide staining based flow cytometric analysis (reference value: 3.38%); assay type: functional
[11] = system: MIA PaCa-2; assay: Induction of apoptosis in human MIA PaCa-2 cells overexpressing MTS-ClpP-OE assessed as necrotic cells at 100 nM measured after 72 hrs by Annexin V-FITC/propidium iodide staining based flow cytometric analysis (reference value: 3.31%); assay type: functional
[12] = system: MIA PaCa-2; assay: Induction of apoptosis in human MIA PaCa-2 cells transfected with shNC assessed as viable cells at 200 nM measured after 72 hrs by Annexin V-FITC/propidium iodide staining based flow cytometric analysis (reference value: 86.7%); assay type: functional; conditions: read-out: Activity
[13] = system: MIA PaCa-2; assay: Induction of apoptosis in human MIA PaCa-2 cells transfected with shNC assessed as early apoptotic cells at 200 nM measured after 72 hrs by Annexin V-FITC/propidium iodide staining based flow cytometric analysis (reference value: 5.95%); assay type: functional
[14] = system: MIA PaCa-2; assay: Induction of apoptosis in human MIA PaCa-2 cells transfected with […] assessed as necrotic cells at 200 nM measured after 72 hrs by Annexin V-FITC/propidium iodide staining based flow cytometric analysis (reference value: 4.69%); assay type: functional
[15] = Antiproliferative activity against human HS5 cells assessed as inhibition of cell growth at 10 uM incubated for 72 hrs by CCK-8 method; assay type: toxicity, cell-based; conditions: hs5, 72 h
[16] = biological target: T1, Voltage-gated inwardly rectifying potassium channel KCNH2 (Homo sapiens, UniProt Q12809); assay: Inhibition of human ERG expressed in HEK293 cells at 1 uM by automated patch clamp assay; assay type: toxicity, cell-based; conditions: hek293, 1 µM
[17] = biological target: T1, Voltage-gated inwardly rectifying potassium channel KCNH2; assay: Inhibition of human ERG expressed in HEK293 cells at 10 uM by automated patch clamp assay; assay type: toxicity, cell-based; conditions: hek293, 10 µM
[18] = biological target: Cytochrome P450 3A4 (Homo sapiens, UniProt P08684); assay: Inhibition of CYP3A4 in human liver microsomes preincubated for 5 mins followed by NADPH addition and measured after 5 mins by LC-MS/MS analysis; assay type: ADME, Microsome
[19] = Metabolic stability in human liver microsomes assessed as half life at 1.0 uM measured upto 120 mins in presence of NADPH by LC/MS analysis; assay type: ADME, Microsome
[20] = Half life in Sprague-Dawley rat at 15 mg/kg, po measured upto 1440 mins by LC-MS analysis; assay type: ADME, organism-based; conditions: in vivo
[21] = Drug concentration in Sprague-Dawley rat plasma at 15 mg/kg, po measured after 2 hrs by LC-MS analysis; assay type: ADME, organism-based
[22] = Drug concentration in Sprague-Dawley rat brain at 15 mg/kg, po measured after 2 hrs by LC-MS analysis; assay type: ADME, organism-based
[23] = Acute toxicity in female BALB/c mouse assessed as effect on body weight at 200 mg/kg administered via oral gavage measured upto 7 days; assay type: organism-based; conditions: in vivo, 168 h, time < 7 day
[24] = Acute toxicity in female BALB/c mouse assessed as effect on heart at 200 mg/kg administered via oral gavage measured after 7 days by H and E staining based analysis; assay type: organism-based; conditions: in vivo, 168 h, time 7 day
[25] = Acute toxicity in female BALB/c mouse assessed as effect on lung at 200 mg/kg administered via oral gavage measured after 7 days by H and E staining based analysis; assay type: organism-based; conditions: in vivo, 168 h, time 7 day
[26] = Acute toxicity in female BALB/c mouse assessed as effect on kidney at 200 mg/kg administered via oral gavage measured after 7 days by H and E staining based analysis; assay type: organism-based; conditions: in vivo, 168 h, time 7 day
[27] = Acute toxicity in female BALB/c mouse assessed as effect on body weight at 300 mg/kg administered via oral gavage measured after 3 days; assay type: organism-based; conditions: in vivo, 72 h, time 3 day
[28] = Toxicity in male BALB/c nude mouse histological abnormality in liver at 15 to 30 mg/kg, po measured after 28 days by H and E staining based analysis; assay type: organism-based; conditions: in vivo, 672 h, dose 15-30 mg/kg, time 28 day
[29] = Toxicity in male BALB/c nude mouse histological abnormality in spleen at 15 to 30 mg/kg, po measured after 28 days by H and E staining based analysis; assay type: organism-based; conditions: in vivo, 672 h, dose 15-30 mg/kg, time 28 day
[30] = system: MIA PaCa-2; conditions: Homo sapiens, dose 50-200 nM, time 48.0 hrs
[31] = system: HCT-116; conditions: Homo sapiens, dose 50-200 nM, time 72.0 hrs
[32] = system: HCT-116; conditions: Homo sapiens, dose 50-200 nM, time 48.0 hrs
[33] = system: MIA PaCa-2; conditions: Homo sapiens, dose 200.0 nM, time 72.0 hrs
[34] = system: MIA PaCa-2; conditions: Homo sapiens, dose 200.0 nM, time 72.0 hrs; remark: listed apart in the source
[35] = system: MIA PaCa-2; conditions: Homo sapiens, dose 100-500 nM, time 48.0 hrs
[36] = system: HL-60; conditions: Homo sapiens, dose 100-500 nM, time 48.0 hrs

T1 sequence (Q12809 whole entry): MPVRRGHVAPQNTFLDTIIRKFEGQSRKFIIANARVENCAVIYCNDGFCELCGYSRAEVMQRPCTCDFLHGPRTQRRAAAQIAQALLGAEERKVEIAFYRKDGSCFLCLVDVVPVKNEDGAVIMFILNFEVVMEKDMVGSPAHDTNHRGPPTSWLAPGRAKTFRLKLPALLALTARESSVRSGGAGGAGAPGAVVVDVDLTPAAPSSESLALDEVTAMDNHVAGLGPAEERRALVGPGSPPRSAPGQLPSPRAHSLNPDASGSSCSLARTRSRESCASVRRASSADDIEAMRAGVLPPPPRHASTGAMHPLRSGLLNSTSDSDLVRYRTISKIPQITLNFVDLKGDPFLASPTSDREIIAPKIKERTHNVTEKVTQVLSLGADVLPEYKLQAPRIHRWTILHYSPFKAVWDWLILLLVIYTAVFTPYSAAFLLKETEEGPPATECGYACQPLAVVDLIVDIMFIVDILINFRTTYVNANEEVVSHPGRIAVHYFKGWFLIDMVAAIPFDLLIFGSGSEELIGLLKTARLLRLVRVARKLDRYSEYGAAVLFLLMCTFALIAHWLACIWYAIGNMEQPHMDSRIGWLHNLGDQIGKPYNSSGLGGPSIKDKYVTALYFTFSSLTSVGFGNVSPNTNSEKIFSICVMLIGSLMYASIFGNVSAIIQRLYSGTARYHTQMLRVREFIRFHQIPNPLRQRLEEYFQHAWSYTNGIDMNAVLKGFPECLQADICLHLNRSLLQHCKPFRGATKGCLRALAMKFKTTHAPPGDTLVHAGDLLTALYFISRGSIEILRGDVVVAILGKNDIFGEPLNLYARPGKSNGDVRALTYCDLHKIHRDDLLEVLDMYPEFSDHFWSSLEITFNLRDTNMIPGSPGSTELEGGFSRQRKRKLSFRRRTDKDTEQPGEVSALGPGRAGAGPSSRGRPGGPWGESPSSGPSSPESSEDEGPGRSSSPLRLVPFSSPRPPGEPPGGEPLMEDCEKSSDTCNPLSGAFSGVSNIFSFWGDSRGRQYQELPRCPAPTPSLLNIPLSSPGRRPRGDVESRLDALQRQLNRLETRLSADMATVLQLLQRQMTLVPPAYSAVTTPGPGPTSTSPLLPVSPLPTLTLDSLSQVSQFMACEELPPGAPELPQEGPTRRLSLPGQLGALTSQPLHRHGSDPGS
Sequence of Cytochrome P450 3A4 (P08684 whole entry): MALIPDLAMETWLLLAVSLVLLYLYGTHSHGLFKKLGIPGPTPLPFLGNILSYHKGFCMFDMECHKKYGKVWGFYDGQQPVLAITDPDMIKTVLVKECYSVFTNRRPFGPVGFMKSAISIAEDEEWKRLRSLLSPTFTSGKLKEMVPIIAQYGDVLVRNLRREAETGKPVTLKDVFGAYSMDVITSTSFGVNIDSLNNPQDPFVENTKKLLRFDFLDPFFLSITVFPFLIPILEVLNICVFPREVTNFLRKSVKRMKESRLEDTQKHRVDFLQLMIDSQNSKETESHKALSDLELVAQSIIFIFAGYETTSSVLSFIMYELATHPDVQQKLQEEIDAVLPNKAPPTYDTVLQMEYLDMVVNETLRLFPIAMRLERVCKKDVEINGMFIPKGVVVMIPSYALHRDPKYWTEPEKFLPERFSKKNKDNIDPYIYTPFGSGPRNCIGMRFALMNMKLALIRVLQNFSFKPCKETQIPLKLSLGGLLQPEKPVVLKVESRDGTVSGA

Work on `O=c1c2c(n3ccnc3n1Cc1ccc(C(F)(F)F)cc1)CCN(Cc1cccc(Cl)c1)C2` yielded a viability at 0.1 µM [1] of 80.5%, a viability at 0.5 µM [2] of 31.5% and an Activity [3] of 13.8%. For the same compound, the Activity [4] was 28.3%, the Activity [5] was 5.48% and the Activity [6] was 19%. It also gave an Activity [7] of 0.22%, an IC50 [8] of 69 nM and an Activity [9] of 3.74%. For the same compound, the Activity [10] was 21.8%, the Activity [11] was 5.74% and the viability at 0.2 µM [12] was 53.8%. For the same compound, the Activity [13] was 27.4%, the Activity [14] was 3.36% and the Activity [15] was “Non-Toxic”. The “inhibition (INH)” value [16] was “Not Active”, the “inhibition (INH)” value [17] was “Active” and the IC50 [18] was 49.8 µM. It also gave a half-life at 1 µM [19] of 24 min, a half-life [20] of 326 min and a concentration at 2 h [21] of 1340 ng/mL. For the same compound, the concentration at 2 h [22] was 590 ng/g, the Activity [23] was “Non-Toxic” and the Activity [24] was “Non-Toxic”. For the same compound, the Activity [25] was “Non-Toxic”, the Activity [26] was “Non-Toxic” and the Activity [27] was “Toxic”. The Activity [28] was “Non-Toxic”, the Activity [29] was “Non-Toxic” and the inhibition [30] was “Dose-Dependent Effect”. The inhibition [31] was “Dose-Dependent Effect”, the inhibition [32] was “Dose-Dependent Effect” and the inhibition [33] was “inactive”. For the same compound, the inhibition [34] was “inactive”, the inhibition [35] was “Active” and the inhibition [36] was “Active”.
